Columns and labels:
MCF7a = assay: (§1) Cytotoxicity against human MCF7a cells expressing Tet-off-3betaHSD1-Arom assessed as inhibition of TST-stimulated cell proliferation measured after 10 days; format: functional, cell-based
[1] = as §1; format: functional, cell-based; settings: 240 h
Aromatase = molecular target: T1, Aromatase (Homo sapiens, UniProt P11511); assay: Inhibition of human placental aromatase using [3H]-1beta-androstenedione as substrate after 16 hrs by [3H]-water method; settings: for inhibition (INH): human, 16 h
T1 sequence (P11511 whole entry): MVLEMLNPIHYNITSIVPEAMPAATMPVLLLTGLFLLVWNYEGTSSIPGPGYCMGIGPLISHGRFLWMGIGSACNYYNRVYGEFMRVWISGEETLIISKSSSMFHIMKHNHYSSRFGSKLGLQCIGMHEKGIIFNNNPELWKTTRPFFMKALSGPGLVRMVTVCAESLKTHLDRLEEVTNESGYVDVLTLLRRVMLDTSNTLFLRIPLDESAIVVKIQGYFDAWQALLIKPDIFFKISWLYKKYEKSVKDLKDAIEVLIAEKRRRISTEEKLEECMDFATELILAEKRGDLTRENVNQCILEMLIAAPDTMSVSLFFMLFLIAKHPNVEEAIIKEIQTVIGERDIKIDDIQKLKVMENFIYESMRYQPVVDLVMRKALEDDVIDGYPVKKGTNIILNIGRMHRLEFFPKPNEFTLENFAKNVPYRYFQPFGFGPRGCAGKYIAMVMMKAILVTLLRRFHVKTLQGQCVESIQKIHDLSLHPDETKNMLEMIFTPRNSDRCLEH

Q: With CC#CCO[C@@H]1C[C@@H]2[C@H](CC[C@]3(C)C(=O)CC[C@@H]23)[C@@]2(C)C=CC(=O)C=C12 as the compound, how does the inhibition (MCF7a) read?
A: The inhibition was “Dose-dependent effect”.

Q: And the EC50 [1]?
A: Its EC50 is 1.7 nM.

Q: What about the IC50 (Aromatase) of the same compound?
A: Its IC50 is 112 nM.

Q: What about the “inhibition (INH)” value (Aromatase) of the same compound?
A: The value was “Dose-dependent effect”.

Q: For CCO[C@@H]1C[C@@H]2[C@H](CC[C@]3(C)C(=O)CC[C@@H]23)[C@@]2(C)C=CC(=O)C=C12, which IC50 (Aromatase) is on record?
A: Its IC50 is 18100 nM.

Q: What about the “inhibition (INH)” value (Aromatase) of the same compound?
A: The value was “Dose-dependent effect”.

Q: Which inhibition (MCF7a) does the source give for CCCC#CCO[C@@H]1C[C@@H]2[C@H](CC[C@]3(C)C(=O)CC[C@@H]23)[C@@]2(C)C=CC(=O)C=C12 here?
A: The inhibition was “Dose-dependent effect”.

Q: And the EC50 [1]?
A: Its EC50 is 3.4 nM.

Q: And the IC50 (Aromatase)?
A: Its IC50 is 83 nM.

Q: And the “inhibition (INH)” value (Aromatase)?
A: The value was “Dose-dependent effect”.

Q: With CO[C@@H]1C[C@@H]2[C@H](CC[C@]3(C)C(=O)CC[C@@H]23)[C@@]2(C)C=CC(=O)C=C12 as the compound, how does the IC50 (Aromatase) read?
A: Its IC50 is 5200 nM.

Q: And the “inhibition (INH)” value (Aromatase)?
A: The value was “Dose-dependent effect”.

Q: For C[C@]12C=CC(=O)C=C1[C@H](OCC#CCO)C[C@@H]1[C@@H]2CC[C@]2(C)C(=O)CC[C@@H]12, which inhibition (MCF7a) is on record?
A: Its inhibition is “Dose-dependent effect”.

Q: And the EC50 [1]?
A: Its EC50 is 0.3 nM.

Q: What about the IC50 (Aromatase) of the same compound?
A: The IC50 was 20 nM.

Q: And the “inhibition (INH)” value (Aromatase)?
A: Its value is “Dose-dependent effect”.

Q: For C[C@]12CCC(=O)C(O)=C1CC[C@@H]1[C@@H]2CC[C@]2(C)C(=O)CC[C@@H]12 [FORMESTANE], which IC50 (Aromatase) is on record?
A: Its IC50 is 48.6 nM.

Q: What about the “inhibition (INH)” value (Aromatase) of the same compound?
A: The value was “Dose-dependent effect”.

Q: With N#Cc1ccc(C(c2ccc(C#N)cc2)n2cncn2)cc1 [LETROZOLE] as the compound, how does the EC50 [1] read?
A: Its EC50 is 0.004 nM.

Q: What about the “inhibition (INH)” value (Aromatase) of the same compound?
A: The value was “Dose-dependent effect”.

Q: What does the source list for CCCCC#CCO[C@@H]1C[C@@H]2[C@H](CC[C@]3(C)C(=O)CC[C@@H]23)[C@@]2(C)C=CC(=O)C=C12?
A: inhibition (MCF7a): Dose-dependent effect; EC50 [1]: 5.4 nM; IC50 (Aromatase): 181 nM; inhibition (INH) (Aromatase): Dose-dependent effect

Q: What does the source list for CCCCCCCC#CCO[C@@H]1C[C@@H]2[C@H](CC[C@]3(C)C(=O)CC[C@@H]23)[C@@]2(C)C=CC(=O)C=C12?
A: inhibition (MCF7a): Dose-dependent effect; IC50 (Aromatase): 2180 nM; inhibition (INH) (Aromatase): Dose-dependent effect

Q: With CCC#CCO[C@@H]1C[C@@H]2[C@H](CC[C@]3(C)C(=O)CC[C@@H]23)[C@@]2(C)C=CC(=O)C=C12 as the compound, how does the inhibition (MCF7a) read?
A: Its inhibition is “Dose-dependent effect”.

Q: What about the EC50 [1] of the same compound?
A: Its EC50 is 0.03 nM.

Q: And the “inhibition (INH)” value (Aromatase)?
A: Its value is “Dose-dependent effect”.

Reference: ChEMBL document CHEMBL2176958, “Novel aromatase inhibitors by structure-guided design” (J Med Chem, 2012)
